# Laboratory results published in US9521847B2, “Synergistic weed control from applications of pyridine carboxylic acid herbicides and synthetic auxin herbicides and/or auxin transport inhibitors” (Dow AgroSciences LLC, priority 2014, dated 2016).
# Values joined by “and” are separate entries in the source; they are usually repeats but may differ in a detail not shown here. Equal values may be shown once. Read-outs that look alike come from different tables or passages of the source.
# Legend:
# common rice (ORYSA) = settings: in vivo
# [1] = system: nutsedge (Cyperus esculentus, CYPES); assay: Greenhouse postemergence trial, % visual injury; type: in vivo
# maize (ZEAMX) = settings: maize (Zea mays), in vivo
# [2] = system: common lambsquarters (CHEAL, Chenopodium album L.); assay: Greenhouse postemergence trial, % visual injury; type: in vivo; settings: for % visual injury, Obs: CHEAL
# [3] = system: common chickweed (Stellaria media, STEME); assay: Greenhouse postemergence trial, % visual injury; type: in vivo; settings: for % visual injury, Obs: STEME
# spring barley (HORVS) = settings: in vivo; for % visual injury (Obs): Hordeum vulgare (spring barley)
# [4] = system: pigweed (AMARE, Amaranthus retroflexus); assay: Greenhouse postemergence trial, % visual injury; type: in vivo; settings: for % visual injury, Obs: AMARE
# [5] = system: sunflower (Helianthus annus, HELAN); assay: Greenhouse postemergence trial, % visual injury; type: in vivo; settings: for % visual injury, Obs: HELAN
# [6] = system: wild mustard (Sinapis arvensis, SINAR); assay: Greenhouse postemergence trial, % visual injury; type: in vivo
# [7] = system: grain sorghum (Sorghum vulgare, SORVU); assay: Greenhouse postemergence trial, % visual injury; type: in vivo
# [8] = system: ivyleaf morningglory (Ipomoea hederacea, IPOHE); assay: Greenhouse postemergence trial, % visual injury
# [9] = system: kochia (KCHSC, Kochia scoparia); assay: Greenhouse postemergence trial, % visual injury; type: in vivo; settings: for % visual injury, Obs.: Table 60
# Experimental: Following the protocol in Example 1, compound 1 and compound 2 were combined with 2,4 D EHE (EC) and applied to kochia (KCHSC, Kochia scoparia) and the phytotoxicity of the herbicidal compositions was measured.
# Following the protocol in Example 1, compound 1 (EC) and Compound 2 (SC) were combined with diflufenzopyr and applied to kochia (Kochia scoparia, KCHSC) and the phytotoxicity of the herbicidal composition was measured.
# [10] = system: Canadian thistle (CIRAR, Cirsium arvense); assay: Greenhouse postemergence trial, % visual injury; settings: for % visual injury, Obs: CIRAR; for pest or weed control at 5 g/ha: Cirsium arvense, post-emergence;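 as to all read-outs here: plants sprayed at second to third true leaf stage, injury scored visually 20-22 d later against solvent-blank sprayed controls, 0 meaning no injury and 100 complete kill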
# [11] = system: wild buckwheat (Polygonum convolvulus, POLCO); assay: Greenhouse postemergence trial, % visual injury; type: in vivo; settings: for % visual injury, Obs: POLCO
# [12] = system: spring rape (Brassica napus, BRSNN); assay: Greenhouse postemergence trial, % visual injury; settings: for plant injury at 5 g/ha: Brassica napus, post-emergence
# [13] = system: Russian thistle (Salsola iberica, SASKR); assay: Greenhouse postemergence trial, % visual injury; type: in vivo
# [14] = system: wild pansy (Viola tricolor, VIOTR); assay: Greenhouse postemergence trial, % visual injury; settings: for % visual injury, Obs: VIOTR
# [15] = system: winter rape (BRSNW, Brassica napus); assay: Greenhouse postemergence trial, % visual injury; type: in vivo; settings: for % visual injury, Obs: BRSNW
# [16] = system: velvetleaf (Abutilon theophrasti, ABUTH); assay: Greenhouse postemergence trial, % visual injury; type: in vivo
# [17] = system: poinsettia (Euphorbia heterophylla, EPHHL); assay: Greenhouse postemergence trial, % visual injury
# [18] = compound 1 (EC) 5 g ae/ha, Table 62
# [19] = compound 1 (EC) 5 g ae/ha, Table 63
# [20] = read-out: % visual injury (Obs)
structure (smiles),measurement,setting,value
Nc1c(F)c(-c2ccc3cc[nH]c3c2F)nc(C(=O)O)c1Cl [compound 1],% visual injury (Obs),common rice (ORYSA),0%
same,"% visual injury, Obs","[1]; CYPES, 5 g ae/ha",30%
same,pest or weed control at 5 g/ha,"[1]; Cyperus, post-emergence, 5 g ae/ha alone, 20-22 d, read-out: % visual injury Obs",25%
same,% visual injury (Obs),[1]; compound 1 (EC) 5 g ae/ha,30%
same,% visual injury (Obs),maize (ZEAMX),5%
same,"% visual injury, Obs",[2]; 5 g ae/ha,90%
same,"% visual injury, Obs",[2]; 10 g ae/ha,100%
same,% visual injury (Obs),[2]; compound 1 (EC) 5 g ae/ha,80%
same,"% visual injury, Obs",[3]; 5 g ae/ha,60% and 70%
same,"% visual injury, Obs",[3]; 10 g ae/ha,70%
same,% visual injury (Obs),[3]; compound 1 (EC) 5 g ae/ha,60%
same,% visual injury (Obs),spring barley (HORVS),0%
same,% visual injury (Obs),spring barley (HORVS); sc,0%
same,"% visual injury, Obs",spring barley (HORVS); spring barley (Hordeum vulgare),0%
same,"% visual injury, Obs",[4]; 5 g ae/ha,75%
same,"% visual injury, Obs",[4]; 10 g ae/ha,97%
same,% visual injury (Obs),[4]; compound 1 (EC) 5 g ae/ha,70%
same,% visual injury (Obs),[4]; compound 1 (EC) 10 g ae/ha,85%
same,% visual injury (Obs),[4]; compound 1 SC 5 g ae/ha,70%
same,% visual injury (Obs),[4]; compound 1 SC 10 g ae/ha,85%
same,"% visual injury, Obs",[5]; 5 g ae/ha,80%
same,"% visual injury, Obs",[5]; [18],70%
same,"% visual injury, Obs",[5]; [19],70%
same,% visual injury (Obs),[5]; compound 1 (EC) 5 g ae/ha,80%
same,% visual injury (Obs),[6]; compound 1 (EC) 5 g ae/ha,100% and 95%
same,% visual injury (Obs),[6]; compound 1 (EC) 10 g ae/ha,100%
same,% visual injury (Obs),[6]; compound 1 SC 5 g ae/ha,100%
same,% visual injury (Obs),[6]; compound 1 SC 10 g ae/ha,80%
same,% visual injury Obs,"[7]; 5 g ae/ha alone, 20-22 d",13%
same,"% visual injury, Obs","[7]; SORVU, 10 g ae/ha",50%
same,% visual injury (Obs),[7]; compound 1 (EC) 5 g ae/ha,30%
same,pest or weed control at 5 g/ha,"[8]; Ipomoea, post-emergence, read-out: % visual injury, Obs, IPOHE, 5 g ae/ha",20%
same,pest or weed control at 10 g/ha,"[8]; Ipomoea, post-emergence, read-out: % visual injury, Obs, IPOHE, 10 g ae/ha",10%
same,% visual injury (Obs),[8]; compound 1 (EC) 5 g ae/ha,20%
same,% visual injury Obs,"[9]; 8.75 g ae/ha alone, 20-22 d",43%
same,pest or weed control at 5 g/ha,"[9]; Bassia scoparia, post-emergence, KCHSC, 5 g ae/ha, read-out: % visual injury, Obs",65%
same,pest or weed control at 10 g/ha,"[9]; Bassia scoparia, post-emergence, KCHSC, 10 g ae/ha, read-out: % visual injury, Obs",60%
same,"% visual injury, Obs.","[9]; KCHSC, compound 1 (EC) 8.75 g ae/ha",78%
same,"% visual injury, Obs.","[9]; KCHSC, compound 1 (EC) 17.5 g ae/ha",80%
same,% visual injury (Obs),[9]; compound 1 (EC) 5 g ae/ha,65%
same,% visual injury (Obs),[9]; compound 1 SC 5 g ae/ha,75%
same,% visual injury (Obs),[9]; compound 1 SC 10 g ae/ha,100%
same,"% visual injury, Obs",[10]; 5 g ae/ha,10%
same,"% visual injury, Obs",[10]; [19],10%
same,pest or weed control at 5 g/ha,[10]; [20],10%
same,pest or weed control at 5 g/ha,[10]; read-out: % visual injury Obs,20%
same,% visual injury (Obs),[10]; compound 1 (EC) 5 g ae/ha,10%
same,"% visual injury, Obs",[11]; 10 g ae/ha,30%
same,"% visual injury, Obs",[11]; [18],65%
same,"% visual injury, Obs",[11]; [19],65%
same,% visual injury (Obs),[11]; compound 1 SC 10 g ae/ha,30% and 40%
same,"% visual injury, Obs","[12]; BRSNN, compound 1 (EC) 5 g ae/ha, Table 62",50%
same,plant injury at 5 g/ha,[12]; [20],50%
same,plant injury at 5 g/ha,[12]; read-out: % visual injury Obs,60%
same,plant injury at 5 g/ha,"[12]; read-out: % visual injury, Obs",50%
same,% visual injury (Obs),[13]; compound 1 (EC) 10 g ae/ha,65% and 60%
same,% visual injury (Obs),[13]; compound 1 SC 5 g ae/ha,65%
same,% visual injury (Obs),[13]; compound 1 SC 10 g ae/ha,80%
same,"% visual injury, Obs",[14]; 10 g ae/ha,10%
same,"% visual injury, Obs",[14]; [18],5%
same,"% visual injury, Obs",[14]; [19],5%
same,pest or weed control at 5 g/ha,"[14]; Viola tricolor, post-emergence, read-out: % visual injury Obs",25%
same,% visual injury (Obs),[14]; compound 1 (EC) 5 g ae/ha,10%
same,% visual injury (Obs),[14]; compound 1 SC 2.5 g ae/ha,13%
same,% visual injury (Obs),[14]; compound 1 SC 5 g ae/ha,23%
same,"% visual injury, Obs",[15]; 5 g ae/ha,40%
same,"% visual injury, Obs",[15]; 10 g ae/ha,45%
same,"% visual injury, Obs",[15]; [18],30%
same,"% visual injury, Obs",[15]; [19],50%
same,% visual injury (Obs),[15]; compound 1 (EC) 5 g ae/ha,40% and 70%
same,% visual injury (Obs),[15]; compound 1 (EC) 10 g ae/ha,100% and 80%
same,% visual injury (Obs),[15]; compound 1 SC 5 g ae/ha,30%
same,% visual injury (Obs),[15]; compound 1 SC 10 g ae/ha,60%
same,pest or weed control at 5 g/ha,"[16]; Abutilon theophrasti, post-emergence, ABUTH, 5 g ae/ha, read-out: % visual injury, Obs",70%
same,pest or weed control at 10 g/ha,"[16]; Abutilon theophrasti, post-emergence, ABUTH, 10 g ae/ha, read-out: % visual injury, Obs",60%
same,pest or weed control at 5 g/ha,"[16]; Abutilon theophrasti, post-emergence, ABUTH, compound 1 (EC) 5 g ae/ha, Table 62, read-out: % visual injury, Obs",60%
same,pest or weed control at 5 g/ha,"[16]; Abutilon theophrasti, post-emergence, ABUTH, compound 1 (EC) 5 g ae/ha, Table 63, read-out: % visual injury, Obs",60%
same,% visual injury (Obs),[16]; compound 1 (EC) 5 g ae/ha,70%
same,pest or weed control at 5 g/ha,"[17]; Euphorbia heterophylla, post-emergence, read-out: % visual injury, Obs, EPHHL, 5 g ae/ha",95%
same,pest or weed control at 10 g/ha,"[17]; Euphorbia heterophylla, post-emergence, read-out: % visual injury, Obs, EPHHL, 10 g ae/ha",97%
same,% visual injury (Obs),[17]; compound 1 (EC) 5 g ae/ha,95%
